Laboratory results from paper PMC5789847, “Bismuth antimicrobial drugs serve as broad-spectrum metallo-β-lactamase inhibitors” (Nature Communications, 2018).
“And” between values parts separate entries of the source, which are not always exact repeats. Equal values may be shown once.

How the values were obtained:
[1] = test system: IMP-BL21 (IMP-4^+); assay: microbe, parasite or virus in culture; type: cell-based, E. coli; conditions: for MBC of MER in combination with compound at 32 µg mL^-1 / MIC of MER in combination with compound at 32 µg mL^-1 / FICI: IMP-BL21; for FICI: MER + compound, 256 µg mL^-1 set as MIC of Bi(III)
Experimental: (§1) MIC values were determined by standard broth micro-dilution method (Clinical and Laboratory Standards Institute (CLSI) M100-S20, 2010)[64]. Briefly, bacterial cells were cultured in LB broth overnight at 37 °C at 250 rpm and the OD was measured at 600 nm (OD600). The bacterial density was adjusted to about 1 × 10^6 CFU mL^−1 and checked by CFU counting on agar plates afterwards. Tested antibiotics or Bi(III) compounds were added triplicately into individual wells of flat-bottomed 96-well plates and performed 2-fold serial dilution, followed by addition of prepared bacterial inocula. The plate was then incubated at 37 °C for overnight. […] The MIC was determined as the lowest concentration of a drug that could inhibit the growth of microorganism by both visual reading and OD reading at 600 nm using a microtiter plate reader.
(§2) Resulting growth (or lack of growth) was examined after overnight culturing and the lowest concentration that inhibits 99.9% of the original culture was taken as MBC.
(§3) Other procedures were kept strictly the same. […] Synergism was defined when FICI ≤ 0.5, indifference was defined when FICI > 0.5 and < 4, and antagonism was defined when FICI≥4[65]. […] All of the determinations were performed at least in triplicate on different days.

[2] = test system: NDM-HK (NDM-1^+); assay: microbe, parasite or virus in culture; type: cell-based, E. coli
Experimental: as §1, §2, §3

[3] = test system: VIM-BL21 (VIM-2^+); assay: microbe, parasite or virus in culture; type: cell-based, E. coli; conditions: for MBC of MER in combination with compound at 32 µg mL^-1 / MIC of MER in combination with compound at 32 µg mL^-1 / FICI: VIM-BL21; for FICI: MER + compound, 256 µg mL^-1 set as MIC of Bi(III)
Experimental: as §1, §2, §3

[4] = target: VIM-2 (Escherichia coli, UniProt Q5U7L7); type: biochemical; conditions: VIM-2 50 nM, 1 h preincubation, MER substrate
Experimental: (§4) Freshly prepared 50 nM of Zn2-NDM-1, Zn2-VIM-2, or Zn2-IMP-4 in 50 mM HEPES/Na pH 7.0, 100 mM NaCl were first incubated with various concentrations of CBS for 1 h at 25 °C, then mixed with equal volume of 0.2 mM MER. The assay was performed in a 1 cm quartz cuvette using the kinetic mode on a Varian Cary50 UV-visible spectrophotometer at 25 °C. The decrease in absorbance at 300 nm due to ring-opening of MER was monitored every second for a duration of 10 min until the reaction was completed. The initial rates were extracted and calculated from each reaction curves for fitting IC50 curves.

[5] = target: T1, NDM-1 (Klebsiella pneumoniae, UniProt C7C422); type: biochemical; conditions: NDM-1 50 nM, 1 h preincubation, MER substrate
Experimental: as §4
Target sequence in this assay (C7C422 29-270, looked up, species assumed): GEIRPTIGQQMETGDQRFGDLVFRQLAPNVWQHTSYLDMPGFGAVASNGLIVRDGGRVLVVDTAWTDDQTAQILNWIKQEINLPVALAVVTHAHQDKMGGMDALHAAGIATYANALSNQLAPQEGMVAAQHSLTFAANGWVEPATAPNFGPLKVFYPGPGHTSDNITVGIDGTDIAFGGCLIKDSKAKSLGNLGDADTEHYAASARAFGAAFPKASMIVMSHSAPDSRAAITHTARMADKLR

[6] = test system: NDM-HK; assay: Time kill assay; type: cell-based, E. coli; conditions: MER 24 µg mL^−1 + Bi(NAC)3 32 µg mL^−1
Experimental: Time kill assay was used to further explore the synergy between MER and Bi(III) compounds. In a typical assay, NDM-HK was cultured overnight and diluted 1:250 into LB broth at 37 °C for 3 h to reach log phase. The initial bacterial density was adjusted to ~10^7 CFU mL^−1 and then exposed to MER, Bi(III) compounds either alone or in combination. LB broth with no drugs served as a control. Aliquots of bacterial suspension were withdrawn at different time intervals (0, 1, 2, 4, 6, 8, and 24 h) for inspection of bacterial viability by agar plating. The concentrations of the drugs used in the test are 24 µg mL^−1 for MER, 64 µg mL^−1 for CBS, and 32 µg mL^−1 for Bi(NAC)3. Data from three independent experiments were averaged and plotted as log10 CFU mL^−1 vs. time (h) for each time point over 24 h. All assays were triplicated and performed three times on different days.

[7] = target: T1, NDM-1; type: cell-based; set-up: endogenous in cells; host or cells: E. coli clinical isolate NDM-HK; conditions: NDM-HK cultured with 100 µM compound; control 50.1 °C
Experimental: The cellular thermal shift assay was performed according to a standard method. Clinical isolate of NDM-1-positive E. coli (NDM-HK) was cultured overnight in the absence or presence of 100 µM Bi(III) compounds, i.e., CBS, Bi(NAC)3, Bi(NIT)3. The bacterial pellets were harvested and washed with PBS for 4 times. The cell suspensions were aliquoted into PCR tubes and heat treatment was performed at the designated temperature ranging from 40 °C to 70 °C for 3 min in a 96-well thermal cycler. The tubes were cooled immediately at room temperature for another 3 min after heating and the heating procedures were repeated for three cycles. For the cell lysis, the samples were frozen–thawed for two cycles in liquid nitrogen and thermal cycler set at 25 °C. The samples were vortexed gently after each cycle and were centrifuged at 20,000 × g to obtain the supernatant when the second cycle was finished. All the samples were subjected to western blot analysis for detection and quantification of NDM-1 content as described above.
Target sequence in this assay (C7C422 29-270 limits assumed): as the sequence (C7C422 29-270, looked up, species assumed) above

[8] = target: IMP-4; assay: IC50 enzyme inhibition assay; type: biochemical; conditions: IMP-4 50 nM, 1 h preincubation, MER substrate
Experimental: as §4

[9] = test system: NDM-K. pneumonia (NDM-1^+); assay: Microdilution MIC/MBC and checkerboard assay; type: cell-based, Klebsiella pneumonia; conditions: for MBC of MER in combination with compound at 32 µg mL^-1 / MIC of MER in combination with compound at 32 µg mL^-1: NDM-K. pneumonia (NDM-KP); for MBC of Bi(III) compound alone / MIC of Bi(III) compound alone / FICI: NDM-KP; for FICI: MER + compound, 256 µg mL^-1 set as MIC of Bi(III)
Experimental: as §1, §2, §3

[10] = test system: MBL-positive bacterial strains; conditions: with MER, different MBL-positive strains
Experimental: as §1, §2, §3

[11] = test system: NDM-HK; assay: Resistance study: MPC and mutation frequency; type: cell-based, E. coli; conditions: ≥64 µg mL^−1 Bi(NAC)3
[12] = test system: NDM-C. freundii (NDM-1^+); assay: Microdilution MIC/MBC and checkerboard assay; type: cell-based, Citrobacter freundii; conditions: for MBC of MER in combination with compound at 32 µg mL^-1 / MIC of MER in combination with compound at 32 µg mL^-1: NDM-C. freundii (NDM-CF); for MBC of Bi(III) compound alone / MIC of Bi(III) compound alone / FICI: NDM-CF; for FICI: MER + compound, 256 µg mL^-1 set as MIC of Bi(III)
Experimental: as §1, §2, §3

[13] = target: T1, NDM-1; type: biochemical; conditions: MER substrate 10 to 150 µM
Target sequence in this assay (C7C422 29-270, looked up, species assumed): as above
Experimental: NDM-1 (50 nM) was incubated with Bi(NIT)3 (0.5, 1.0, and 1.5 µM) for 1 h at 25 °C with gentle shaking. The assay was performed in a 96-well microplate reader at 298 K. The final assay buffer contains 50 mM HEPES at pH 7.0, 100 mM NaCl, with MER as the substrate ranging from 10 to 150 µM. Control experiment was also performed in the absence of inhibitors under the same conditions. The Km and Vmax for both the uninhibited and inhibited reactions were obtained by fitting the data into the double reciprocal Lineweaver–Burk plots.

[14] = test system: NDM-HK
Experimental: Metal salts used for the screening involved bismuth nitrate (Bi(III)), gallium nitrate (Ga(III)), sodium stibogluconate (Sb(V)), chromium chloride (Cr(III)), cobalt chloride (Co(II)), nickel chloride (Ni(II)), ruthenium chloride (Ru(II)), and copper sulfate (Cu(II)). Briefly, different concentrations (10, 50, and 200 μM) of metal compounds were added to LB medium containing 8 μg mL^−1 of MER in 96-well plates. About 2 × 10^6 CFU mL^−1 logarithmic cultures of NDM-HK were added to each well of the plates and co-incubated for overnight. The growth inhibition of bacteria was monitored by OD reading at 600 nm and serial dilution in LB agar plate. Wells with no antibiotics or metal compounds served as growth controls, and wells with no bacteria added served as background controls. Each test was performed in triplicate. The inhibition was calculated as [1−(ODsample−ODbackground)/(ODcontrol−ODbackground)] ×100%. CFU was counting by 10-fold serial dilution in PBS and 10 μL was spotted in LB agar plate.

Row | Compound | MBC of MER in combination with compound at 32 µg mL^-1 [1] | MIC of MER in combination with compound at 32 µg mL^-1 [1] | FICI [1] | MBC of Bi(III) compound/inhibitor alone ([2]; NDM-HK) [µg/mL] | MBC of MER in combination with compound at 32 µg mL^-1 ([2]; NDM-HK) [µg/mL] | MIC of Bi(III) compound/inhibitor alone ([2]; NDM-HK) [µg/mL] | MIC of MER in combination with compound at 32 µg mL^-1 ([2]; NDM-HK) [µg/mL] | MBC of MER in combination with compound at 32 µg mL^-1 [3] [µg/mL] | MIC of MER in combination with compound at 32 µg mL^-1 [3] [µg/mL] | FICI [3] | IC50 [4] [µM] | IC50 [5] [µM] | NDM-1 melting temperature, treated group [7] [°C] | IC50 [8] [µM] | MBC of MER in combination with compound at 32 µg mL^-1 [9] | MIC of MER in combination with compound at 32 µg mL^-1 [9] | MBC of Bi(III) compound alone [9] [µg/mL] | MIC of Bi(III) compound alone [9] [µg/mL] | FICI [9] | MBC of MER in combination with compound at 32 µg mL^-1 [12] | further results
1 | CC(=O)N[C@@H](C[S][Bi]([S]C[C@H](NC(C)=O)C(=O)O)[S]C[C@H](NC(C)=O)C(=O)O)C(=O)O [Bi(NAC)3] | 2 µg mL^-1 and 2/2 µg mL^-1 | 2 µg mL^-1 and 2/2 µg mL^-1 | 0.125 | > 256 | 0.5 | 128 | 0.5 | 1 | 0.5 | 0.063 | 2.65 ± 0.57 | 1.65 ± 0.6 | 47.7 | 2.8 ± 0.79 | 2 µg/mL | 1 µg/mL | > 256 | 256 | 0.188 | 0.5 µg mL^-1 and 0.5/0.5 µg mL^-1 | decrease in the MIC of MER ([1]; IMP-4-positive E. coli): 16 fold; decrease in the MIC of MER ([2]; NDM-1-positive E. coli): 32 fold; decrease in the MIC of MER ([3]; VIM-2-positive E. coli): 64 fold; time to eradicate the bacterium completely [6]: ≤ 6 h; FICI values [10]: 0.063 to 0.188; MER MPC with Bi(NAC)3 [11]: 2 fold MIC; MIC of MER in combination with compound at 32 µg mL^-1 [12]: 0.5 µg mL^-1 and 0.5/0.5 µg mL^-1; MBC of Bi(III) compound alone [12]: > 256 µg/mL; MIC of Bi(III) compound alone [12]: 256 µg/mL; FICI [12]: 0.188
2 | O=[N+]([O-])[O-].O=[N+]([O-])[O-].O=[N+]([O-])[O-].[Bi+3] [Bi(NIT)3, bismuth nitrate] | 8 µg/mL | 4 µg/mL | 0.250 | > 256 | 4 | > 256 | 2 | 2 | 1 | 0.063 | 1.2 ± 0.13 | 0.7 ± 0.13 | 48.1 | 0.99 ± 0.19 | 1 µg mL^-1 and 1/1 µg mL^-1 | 1 µg mL^-1 and 1/1 µg mL^-1 | > 256 | > 256 | 0.125 | 4 µg/mL | inhibition mode (Lineweaver Burk plot) [13]: either a non-competitive or an irreversible inhibition mode; FICI ([2]; NDM-HK, MER + compound, 256 µg mL^-1 set as MIC of Bi(III), 128 for Bi(NAC)3): 0.266; colony-forming unit (CFU) counting on agar plate after serial dilutions ([14]; MER 8 μg mL-1 + metal compound 10 μM): no colony was observed; growth inhibition based on optical density (OD) reading ([14]; metal compound 10, 50, 200 µM with MER at ½MIC (8 μg mL^−1), 24 h): > 90%; MIC of MER in combination with compound at 32 µg mL^-1 [12]: 2 µg/mL; MBC of Bi(III) compound alone [12]: > 256 µg/mL; MIC of Bi(III) compound alone [12]: > 256 µg/mL; FICI [12]: 0.375
